Earlier results in US11058694B2, “Nutritional supplements for growth enhancement in pre-pubertal adolescents” (Nutritional Growth Solutions LTD, priority 2014, dated 2021).

What was measured:
[1] = versus placebo, daily syrup for six months
[2] = 33 randomized controlled intervention trials
[3] = 6-12 months follow-up, normal serum zinc levels

[Fe] [iron]
increase in hemoglobin concentrations, effect size (iron interventions, 95% CI: 0.46, 2.51): 1.49 | effect of supplementation intervention on child growth (iron supplementation): no significant effect

[Zn] [zinc]
mean height for age Z-score [1]: decreased to a greater extent than placebo | responses in height and in weight increments [2]: significant positive responses | height or weight-SDS [3]: did not significantly changed

vitamin A
effect of supplementation interventions on growth (vitamin A supplementation): no significant effect on growth
